Measured values reported in patent US9056844B2, “4-substituted-3-benzyloxy-bicyclo[3.1.0]hexane compounds as mGluR 2/3 antagonists” (Eli Lilly and Company, priority 2010, dated 2015).

Experiments:
[1] = test system: male NIH-Swiss mice; assay: Forced-swim test in mice (mFST); assay type: in vivo, mouse
From the text: Forced-Swim Test in Mice (mFST)
mFST is an established in vivo assay for antidepressant activity (Li et al. J Pharmacol Exp Ther. 319(1):254-9, 2006.). […] The mFST was used to evaluate potential antidepressant-like activity of novel mGlu2/3 antagonists essentially as described in previously published methods (see for example, Li et al. J Pharmacol Exp Ther. 319(1):254-9, 2006.). Briefly, male NIH-Swiss mice (Harlan Sprague-Dawley, Indianapolis, Ind.) weighing between 25-30 g are used. Group housed animals are removed from the vivarium to the testing area in their own cages and allowed to adapt to the new environment for at least 1 hour before testing. Compounds where R^1 and R^2 are both hydrogen are dissolved in water with minimal NaOH added for dissolution and are administered i.p. Compounds where R^1 and/or R^2 are other than hydrogen are prepared on the day of use in 2.0-2.5% N-methyl-pyrrolidinone and then suspended in 1% HEC, 0.25% Tween 80, and 0.05% Dow antifoam, and administered orally. Mice are placed in a cylinder (diameter: 10 cm; height: 25 cm) filled with 6 cm of water (22-25° C.) for 6 min. The duration of immobility during the last 4 min. of the 6 min. period of the test was scored. A mouse is recorded as immobile when floating motionless or making only those movements necessary to keep its head above water.

[2] = test system: mGlu2+/+ mice; assay: mFST in mGlu2+/+ littermate mice; assay type: in vivo, mouse; details: 30 mg/kg, po, 120 min prior
[3] = test system: mice; assay: mFST with SSRI (fluoxetine combination); assay type: in vivo, mouse
Description: mFST is an established in vivo assay for antidepressant activity (Li et al. J Pharmacol Exp Ther. 319(1):254-9, 2006.). […] J Pharmacol Exp Ther. 319(1):254-9, 2006.). Briefly, male NIH-Swiss mice (Harlan Sprague-Dawley, Indianapolis, Ind.) weighing between 25-30 g are used. Group housed animals are removed from the vivarium to the testing area in their own cages and allowed to adapt to the new environment for at least 1 hour before testing. Compounds where R^1 and R^2 are both hydrogen are dissolved in water with minimal NaOH added for dissolution and are administered i.p. […] Mice are placed in a cylinder (diameter: 10 cm; height: 25 cm) filled with 6 cm of water (22-25° C.) for 6 min. The duration of immobility during the last 4 min. of the 6 min. period of the test was scored. A mouse is recorded as immobile when floating motionless or making only those movements necessary to keep its head above water. The compounds of the invention may also be tested in combination with other compounds useful for the treatment of depressive disorders, as for example SSRI's, for their ability to enhance the antidepressant-like effects over that of either compound alone.

[4] = Brain and plasma levels of active di-acid in the fluoxetine combination study; assay type: in vivo, mouse; details: combination with fluoxetine versus alone
From the text: The compounds of the invention may also be tested in combination with other compounds useful for the treatment of depressive disorders, as for example SSRI's, for their ability to enhance the antidepressant-like effects over that of either compound alone.

[5] = test system: male Wistar rats; assay: Wakefulness and behavioral monitoring in rats (EEG/EMG/LMA); assay type: in vivo, rat; details: for Locomotor Activity Intensity, Mean (difference from vehicle controls): averaged over the first 7 hr post-treatment; for Cumulative Time Awake 8-19 hours, Mean (difference from vehicle controls): rebound hypersomnolence measure
Description: Wakefulness and Behavioral Monitoring in Rats:
Representative compounds of the present invention are tested in rats for their ability to increase the amount of time in a state of wakefulness without undesired effects such as inhibition of REM sleep, waking motor impairment (disproportionate hyper- or hypolocomotion), and/or rebound hypersomnia Test animals are continuously monitored by electro-encephalograms (EEG), electromyograms (EMG), and motion to measure cumulative time awake, rebound hypersomnia, and locomotor activity intensity during wakefulness. Methods for such studies are known in the art (see for example methods described in Edgar D M, Seidel W F. Modafinil induces wakefulness without intensifying motor activity or subsequent rebound hypersomnolence in the rat. J Pharmacology & Experimental Therapeutics 1997; 283: 757-769; van Gelder R N, Edgar D M, Dement W C. Real-time automated sleep scoring: validation of a microcomputer-based system for mice. Sleep 1991, 14: 48-55; and Gross B A, Walsh C M, Turakhia A A, Booth V, Mashour G A, Poe G R. Open-source logic-based automated sleep scoring software using electrophysiological recordings in rats. J Neurosci Methods. 2009; 184(1):10-8.) Studies are conducted as follows:
Adult, male Wistar rats (approximately 270-300 g at time of surgery) are surgically fitted for chronic recording of EEG, EMG, body temperature, and motion as follows: Rats are surgically prepared with a cranial implant consisting of four stainless steel screws for EEG recording (two frontal [3.9 mm anterior from bregma, and ±2.0 mm mediolaterally] and two occipital [6.4 mm posterior from bregma, ±5.5 mm mediolaterally]), and with two Teflon-coated stainless steel wires for EMG recording (positioned under the nuchal trapezoid muscles). All leads are soldered to a miniature connector (Microtech, Boothwyn, Pa.) prior to surgery. The implant assembly is affixed to the skull by the combination of the stainless steel EEG recording screws, cyanoacrylate applied between the implant connector and skull, and dental acrylic. Body temperature and locomotor activity is monitored via a miniature transmitter (Minimitter PDT4000G, Philips Respironics, Bend, Oreg.) surgically placed into the abdomen. At least 3 weeks are allowed for recovery.
Each rat is housed individually within a microisolator cage modified with an inserted polycarbonate filter-top riser to allow more vertical headroom. A flexible cable that minimally restricts movement is connected at one end to a commutator affixed to the cage top and at the other end to the animal's cranial implant. Each cage is located within separate, ventilated compartments of a stainless steel sleep-wake recording chamber. Food and water are available ad libitum and the ambient temperature is maintained at about 23±1° C. A 24-hr light-dark cycle (LD 12:12) using fluorescent light is maintained throughout the study. Relative humidity averages approximately 50%. Animals are undisturbed for at least 30 hrs before and after each treatment.
Compounds where R^1 and R^2 are both hydrogen are dissolved in water with minimal NaOH added for dissolution and are administered i.p in a volume of 1.0 mL per kg body weight. Compounds where R^1 and/or R^2 are other than hydrogen are administer p.o. in a volume of 2 mL per kg body weight in one of two alternative vehicles: i) 2.5% N-methyl-2-pyrrolidinone in hydroxyethylcellulose; or ii) 10% acacia with 0.05% Dow Corning® Antifoam in water. The vehicle or one of the compound dose levels is administered pseudo-randomly such that no rat receives the same treatment twice, and no rat receives more than two of the 8 treatments in any one study. Each rat is removed from its cage for about a minute to be weighed and treated. At least 6 days “washout” period precede and follow each treatment.
Sleep and wakefulness discrimination may be automated (e.g., Van Gelder et al. 1991; Edgar et al. 1997, Winrow et al., 2010; Gross et al., 2009). […]

CC(C)OC(=O)OCOC(=O)[C@H]1[C@@H]2[C@H](O)[C@@H](OCc3ccc(Cl)c(Cl)c3)[C@@](N)(C(=O)OCOC(=O)OC(C)C)[C@H]12.Cl [Example 10, Bis({[(1-methylethoxy)carbonyl]oxy}methyl) (1S,2R,3S,4S,5R,6R)-2-amino-3-[(3,4-dichlorobenzyl)oxy]-4-hydroxybicyclo[3.1.0]hexane-2,6-dicarboxylate hydrochloride]
ED60 ([1]; Mus musculus, po, immobility in last 4 min of 6 min): 22.1 mg/kg | Maximal Decrease (1 − compound/control) * 100% ([1]; p.o., immobility time): 50.5% | immobility time [2]: decrease immobility time | antidepressant-like effect in combination with fluoxetine ([3]; Example 10 17 mg/kg p.o. with fluoxetine 10 mg/kg i.p.): significantly increase the antidepressant-like effect over that of either compound alone | Maximal Decrease (1 − compound/control) * 100% ([3]; Example 10 17 mg/kg p.o., fluoxetine 10 mg/kg i.p., alone or combined): 24.5% | Immobilization Time ([3]; Example 10 17 mg/kg p.o., fluoxetine 10 mg/kg i.p., alone or combined, vehicle 174): 105 s | brain and plasma levels of the active di-acid moiety [4]: no increase in exposure levels | Cumulative Time Awake first 7 hours, Mean (difference from vehicle controls) ([5]; 10 mg/kg PO): 20.4 min | Locomotor Activity Intensity, Mean (difference from vehicle controls) ([5]; 10 mg/kg PO): 2.7 counts of LMA per minute of EEG-defined wakefulness | Cumulative Time Awake 8-19 hours, Mean (difference from vehicle controls) ([5]; 10 mg/kg PO): 15.2 min | Cumulative Time Awake first 7 hours, Mean (difference from vehicle controls) ([5]; 30 mg/kg PO): 48.8 min | Locomotor Activity Intensity, Mean (difference from vehicle controls) ([5]; 30 mg/kg PO): 0.5 counts of LMA per minute of EEG-defined wakefulness | Cumulative Time Awake 8-19 hours, Mean (difference from vehicle controls) ([5]; 30 mg/kg PO): 25.6 min | Cumulative Time Awake first 7 hours, Mean (difference from vehicle controls) ([5]; 60 mg/kg PO): 64.7 min | Locomotor Activity Intensity, Mean (difference from vehicle controls) ([5]; 60 mg/kg PO): 4.2 counts of LMA per minute of EEG-defined wakefulness | Cumulative Time Awake 8-19 hours, Mean (difference from vehicle controls) ([5]; 60 mg/kg PO): 34.7 min
